16 molecules from US20110105381A2, “Prodrugs of Peripheral Phenolic Opioid Antagonists” (PharmacoFore, Inc., priority 2007, published 2011) can be followed below.

Where a name gives a salt, the structure may show the parent alone. Read-outs that look alike come from different tables or passages of the source.

A short description of data set [1]: Plasma timecourse of N-MTX following PO administration to rat. Particulars: for detectable levels of N-MTX: oral dosing in rats at the doses of Table 1; for pharmacokinetic profile (e.g. oral bioavailability), N-MTX: oral dosing in rats, Cmax and/or persistence of exposure compared with N-MTX itself.
Procedure: (§1) Plasma Timecourse of Peripheral Phenolic Opioid Antagonists Following PO Administration to Rat
(§2) Oral dosing: The test compounds were dissolved in saline and dosed via oral gavage into jugular vein cannulated male Sprague-Dawley rats. N-MTX and N-MNLX, each at 20 mg/kg, were used as positive controls and the test compounds were dosed at the doses indicated in Tables 1 and 2. At specified time points, blood samples were withdrawn, quenched into methanol, centrifuged at 14000 rpm @ 4° C., and stored at −80° C. until analysis. Samples were quantified via LC/MS/MS using an ABI 3000 triple-quad mass spectrometer.
Data set [2] is described as follows: Plasma timecourse of N-MNLX following PO administration to rat. Type of data set: in vivo, male Sprague-Dawley rats. Particulars: oral dosing in rats; Cmax and/or persistence of exposure compared with N-MNLX itself.
Procedure: as §1, §2
For data set [3] the following is noted: rat, in vivo.
Procedure: as §1, §2

Take `CN(CCNC(=O)[C@@H](N)CC(N)=O)C(=O)Oc1ccc2c3c1O[C@H]1C(=O)CC[C@@]4(O)C(C2)[N@+](C)(CC2CC2)CC[C@]314` [Example 5, (R)—N-Methylnaltrexone 3-(N-methyl-N-(2-N-asparaginylamino))ethylcarbamate]: the “detectable levels of N-MTX” value in data set [1] was “did not afford detectable levels of N-MTX”.
`CC(=O)NCC(=O)N[C@@H](CCCNC(=N)N)C(=O)NCCN(C)C(=O)Oc1ccc2c3c1O[C@H]1C(=O)CC[C@@]4(O)C(C2)[N@+](C)(CC2CC2)CC[C@]314` [Example 11, (R)—N-Methylnaltrexone 3-(N-methyl-N-(2-N—(N-acetyl)glycinylarginylamino))-ethylcarbamate]: in data set [1], the “pharmacokinetic profile (e.g. oral bioavailability), N-MTX” value (“pharmacokinetic profile … N-MTX” for short) is given as “improved pharmacokinetic profile”.
Still for that read-out and setting: in the case of `CN(CCNC(=O)[C@H](Cc1ccccc1)NC(=O)CN)C(=O)Oc1ccc2c3c1O[C@H]1C(=O)CC[C@@]4(O)C(C2)[N@+](C)(CC2CC2)CC[C@]314` [Example 13, (R)—N-Methylnaltrexone 3-(N-methyl-N-(2-N-glycinylphenylalaninylamino))-ethylcarbamate] it was “improved pharmacokinetic profile”.
As for `CN(CCNC(=O)[C@@H](N)Cc1ccc(O)cc1)C(=O)Oc1ccc2c3c1O[C@H]1C(=O)CC[C@@]4(O)C(C2)[N@+](C)(CC2CC2)CC[C@]314` [Example 7, (R)—N-Methylnaltrexone 3-(N-methyl-N-(2-N-tyrosinylamino))ethylcarbamate], the “detectable levels of N-MTX” value in data set [1] was “did not afford detectable levels of N-MTX”.
Take `C[C@H](N)C(=O)NCCN(C)C(=O)Oc1ccc2c3c1O[C@H]1C(=O)CC[C@@]4(O)C(C2)[N@+](C)(CC2CC2)CC[C@]314` [Example 8, (R)—N-Methylnaltrexone 3-(N-methyl-N-(2-N-alaninylamino))ethylcarbamate]: the “detectable levels of N-MTX” value in data set [1] is listed as “did not afford detectable levels of N-MTX”.
In the case of `CN(CCNC(=O)[C@@H](N)CC(=O)O)C(=O)Oc1ccc2c3c1O[C@H]1C(=O)CC[C@@]4(O)C(C2)[N@+](C)(CC2CC2)CC[C@]314` [Example 6, (R)—N-Methylnaltrexone 3-(N-methyl-N-(2-N-aspartinylamino))ethylcarbamate], the “pharmacokinetic profile … N-MTX” value in data set [1] is listed as “improved pharmacokinetic profile”.
Same read-out and setting: with `CN(CCNC(=O)[C@@H](N)CCCNC(=N)N)C(=O)Oc1ccc2c3c1O[C@H]1C(=O)CC[C@@]4(O)C(C2)[N@+](C)(CC2CC2)CC[C@]314` [Example 3, (R)—N-Methylnaltrexone 3-(N-methyl-N-(2-arginylamino))ethylcarbamate] the entry was “improved pharmacokinetic profile”.
With `CC(=O)N[C@@H](CCCNC(=N)N)C(=O)NCCN(C)C(=O)Oc1ccc2c3c1O[C@H]1C(=O)CC[C@@]4(O)C(C2)[N@+](C)(CC2CC2)CC[C@]314` [Example 4, (R)—N-Methylnaltrexone 3-(N-methyl-N-(2-N-acetylarginylamino))ethylcarbamate], the “detectable levels of N-MTX” value in data set [1] is “did not afford detectable levels of N-MTX”.
Same read-out and setting: with `C[C@H](NC(=O)CN)C(=O)NCCN(C)C(=O)Oc1ccc2c3c1O[C@H]1C(=O)CC[C@@]4(O)C(C2)[N@+](C)(CC2CC2)CC[C@]314` [Example 12, (R)—N-Methylnaltrexone 3-(N-methyl-N-(2-N-glycinylalaninylamino))-ethylcarbamate] the entry was “did not afford detectable levels of N-MTX”.
Take `C=CC[N+]1(C)CC[C@]23c4c5ccc(OC(=O)N(C)CCN)c4O[C@H]2C(=O)CC[C@@]3(O)[C@H]1C5` (stereo partly shown) [Example 14, N-Methylnaloxone 3-(N-methyl-N-(2-aminoethyl))carbamate]: the “pharmacokinetic profile (e.g. oral bioavailability), N-MNLX” value in data set [2] is given as “improved pharmacokinetic profile”.
For the molecule `C[N@@+]1(CC2CC2)CC[C@]23c4c5ccc(O)c4O[C@H]2C(=O)CC[C@@]3(O)C1C5` [N-MTX, (R)—N-methylnaltrexone, reference compound], the “pharmacokinetic profile … N-MTX” value in data set [1] is reported as “poor pharmacokinetic profiles”.
With `CN(CCNC(=O)[C@H](CCCNC(=N)N)NC(=O)CN)C(=O)Oc1ccc2c3c1O[C@H]1C(=O)CC[C@@]4(O)C(C2)[N@+](C)(CC2CC2)CC[C@]314` [Example 10, (R)—N-Methylnaltrexone 3-(N-methyl-N-(2-N-glycinylarginylamino))ethylcarbamate], the “pharmacokinetic profile … N-MTX” value in data set [1] is on record as “improved pharmacokinetic profile”.
On the same count and under the same terms, in the case of `CC(C)C[C@H](N)C(=O)NCCN(C)C(=O)Oc1ccc2c3c1O[C@H]1C(=O)CC[C@@]4(O)C(C2)[N@+](C)(CC2CC2)CC[C@]314` [Example 2, (R)—N-Methylnaltrexone 3-(N-methyl-N-(2-leucinylamino))ethylcarbamate Hydrochloride] it was “improved pharmacokinetic profile”.
Regarding `C=CC[N+]1(C)CC[C@]23c4c5ccc(O)c4O[C@H]2C(=O)CC[C@@]3(O)[C@H]1C5.[Br-]` (stereo partly shown) [N-MNLX, N-methylnaloxone, reference compound], the “pharmacokinetic profile (e.g. oral bioavailability), N-MNLX” value in data set [2] is recorded as “poor pharmacokinetic profiles”.
As for `CN(CCNC(=O)[C@@H](N)CCCCN)C(=O)Oc1ccc2c3c1O[C@H]1C(=O)CC[C@@]4(O)C(C2)[N@+](C)(CC2CC2)CC[C@]314` [Example 9, (R)—N-Methylnaltrexone 3-(N-methyl-N-(2-N-lysinylamino))ethylcarbamate], the “detectable levels of N-MTX” value in data set [1] was “did not afford detectable levels of N-MTX”.
For `CN(CCN)C(=O)Oc1ccc2c3c1O[C@H]1C(=O)CC[C@@]4(O)[C@@H](C2)[N+](C)(CC2CC2)CC[C@]314.Cl.[Cl-]` (stereo partly drawn) [Example 1, (R)—N-Methylnaltrexone 3-(N-methyl-N-(2-aminoethyl))carbamate], the “pharmacokinetic profile … N-MTX” value in data set [3] is reported as “improved pharmacokinetic profile”.
